Tested on: endogenous target monocytes in human PBMC
Test: PBMC ex vivo monocyte depletion flow cytometry assay (Example 200)
Type: cell-based
Details: with anti-cotinine antibody (SEQ ID NO: 11/12), 18-24 hours, EC50 in molar, read-out: Ex Vivo Depletion Assay pEC50 (converted)
Method: A human PBMC (peripheral blood mononuclear cells) monocyte depletion flow cytometry assay was developed to screen compounds in a 384-well plate format. This assay incorporated endogenous natural killer cells to deplete endogenous target monocytes.
To screen compounds in the human PBMC monocyte depletion flow cytometry assay, 11-point dose-response curves were made from 1 mM stocks in neat DMSO by serially diluting an ARM compound of Formula (I) four-fold into a 384-well plate row-wise. These serially diluted compounds were then stamped into a flat bottom polypropylene 384-well plate (Greiner Bio-One) at 100 nL/well. Fifty microliters of 30 μg/mL anti-cotinine antibody having a heavy chain sequence of SEQ ID NO: 11 and a light chain sequence of SEQ ID NO: 12 (rabbit variable region with human IgG1 Fc domain containing a DE mutation (S239D/1332E)) that had been diluted in assay medium (RPMI 1640 (Gibco) containing 10% fetal bovine serum (Gibco), 1% Glutamax (Gibco) and 1% sodium pyruvate (Corning) was added to the wells of the plate. The plate was centrifuged for 1 min at 500 rpm (revolutions per minute) and then shaken for 5 min at room temperature. The plate was incubated for 15 minutes at 37° C./5% CO2.
Frozen PBMC cells (HemaCare BioResearch) were thawed and centrifuged at 1,200 rpm for 4 minutes. The cells were diluted to a cell density of 2×10^6 cells/mL in assay medium. Fifty microliters of the diluted cells were added to the wells of the plate. The plate was centrifuged for 1 min at 500 rpm and incubated for 18-24 hours at 37° C./5% CO2.
After 18-24 hours incubation, 2 μL of 6.25 μg human FC block (BD Pharmingen) that was diluted in assay medium was added to the wells of the plate. The plate was centrifuged for 1 minute at 500 rpm and then incubated at room temperature for 15 minutes. Five microliters of 750 nM Helix NP NIR (Biolegend) that had been diluted in assay medium was added to the wells of the plate. Nine microliters of antibody cocktail containing 1/5 diluted fluorescein isothiocyanate (FITC) labeled anti-CD45 antibody (Beckman Coulter), PC7 labeled anti-CD14 antibody (Beckman Coulter) and phyocoerythrin (PE) anti-CD4 antibody (Beckman Coulter) was then added to the wells of the plate. The plate was centrifuged for 1 min at 500 rpm and incubated for 30 minutes at 4-8° C. Samples from the plate were run on BD FACS Canto II flow cytometer and data was analyzed using FlowJo software.
ARMs compounds of Formula (I) of the invention were tested for the ability to deplete monocytes in the above assay in one or more experimental runs and the results are shown in Table 3 below. Potency of the compounds of the invention is reported as a pEC50 value. The pEC50 value is the negative log of the EC50 value, wherein the EC50 value is the half maximal effective concentration measured in molar (M). For compounds tested in more than one experimental run, the pEC50 value is reported as an average or as the individual values measured

Structure (SMILES) | EC50 [nM]
CC(C)N(C)[C@@H]1CC[C@H](N2CC[C@H](Nc3ncnc4ccc(C(F)(F)F)cc34)C2=O)[C@H](NC(=O)C2CCC3(CC2)CCN(CCOCCOCCNC(=O)[C@H]2CC(=O)N(C)[C@@H]2c2cccnc2)CC3)C1 [Example 93, N-((1R,2S,5R)-5-(Isopropyl(methyl)amino)-2-((S)-2-oxo-3-((6-(trifluoromethyl)quinazolin-4-yl)amino)pyrrolidin-1-yl)cyclohexyl)-3-(2-(2-(2-((2S,3S)-1-methyl-5-oxo-2-(pyridin-3-yl)pyrrolidine-3-carboxamido)ethoxy)ethoxy)ethyl)-3-azaspiro [5.5]undecane-9-carboxamide] | 126
CC(C)N(C)[C@@H]1CC[C@H](N2CC[C@H](Nc3ncnc4ccc(C(F)(F)F)cc34)C2=O)[C@H](NC(=O)[C@H]2CC[C@@H](NC(=O)C3CCC4(CC3)CCN(C(=O)[C@H]3CC(=O)N(C)[C@@H]3c3cccnc3)CC4)CC2)C1 [Example 95, N-((1S,4R)-4-(((1R,2S,5R)-5-(Isopropyl(methyl)amino)-2-((S)-2-oxo-3-((6-(trifluoromethyl)quinazolin-4-yl)amino)pyrrolidin-1-yl)cyclohexyl)carbamoyl)cyclohexyl)-3-((2S,3S)-1-methyl-5-oxo-2-(pyridin-3-yl)pyrrolidine-3-carbonyl)-3-azaspiro[5.5]undecane-9-carboxamide] | 631
CC(C)N(C)[C@@H]1CC[C@H](N2CC[C@H](Nc3ncnc4ccc(C(F)(F)F)cc34)C2=O)[C@H](NC(=O)[C@H]2CC[C@H](N3CCN(C(=O)CCOCCOCCNC(=O)[C@H]4CC(=O)N(C)[C@@H]4c4cccnc4)CC3)CC2)C1 [Example 96, (2S,3S)-N-(2-(2-(3-(4-((1R,4r)-4-(((1R,2S,5R)-5-(Isopropyl(methyl)amino)-2-((S)-2-oxo-3-((6-(trifluoromethyl)quinazolin-4-yl)amino)pyrrolidin-1-yl)cyclohexyl)carbamoyl)cyclohexyl)piperazin-1-yl)-3-oxopropoxy)ethoxy)ethyl)-1-methyl-5-oxo-2-(pyridin-3-yl)pyrrolidine-3-carboxamide] | 1
CC(C)N(C)[C@@H]1CC[C@H](N2CC[C@H](Nc3ncnc4ccc(C(F)(F)F)cc34)C2=O)[C@H](NC(=O)[C@H]2CC[C@H](N3CCN(C4CC(CCNC(=O)[C@H]5CC(=O)N(C)[C@@H]5c5cccnc5)C4)CC3)CC2)C1 (stereo partly drawn) [Example 97, (2S,3S)-N-(2-(3-(4-((1R,4S)-4-(((1R,2S,5R)-5-(Isopropyl(methyl)amino)-2-((S)-2-oxo-3-((6-(trifluoromethyl)quinazolin-4-yl)amino)pyrrolidin-1-yl)cyclohexyl)carbamoyl)cyclohexyl)piperazin-1-yl)cyclobutyl)ethyl)-1-methyl-5-oxo-2-(pyridin-3-yl)pyrrolidine-3-carboxamide] | 0.0631
CC(C)N(C)[C@@H]1CC[C@H](N2CC[C@H](Nc3ncnc4ccc(C(F)(F)F)cc34)C2=O)[C@H](NC(=O)[C@H]2CC[C@@H](NC(=O)CCOCCNC(=O)CCOCCCNC(=O)[C@H]3CC(=O)N(C)[C@@H]3c3cccnc3)CC2)C1 [Example 101, (2S,3S)-N-(3-(3-((2-(3-(((1S,4s)-4-(((1R,2S,5R)-5-(Isopropyl(methyl)amino)-2-((S)-2-oxo-3-((6-(trifluoromethyl)quinazolin-4-yl)amino)pyrrolidin-1-yl)cyclohexyl)carbamoyl)cyclohexyl)amino)-3-oxopropoxy)ethyl)amino)-3-oxopropoxy)propyl)-1-methyl-5-oxo-2-(pyridin-3-yl)pyrrolidine-3-carboxamide] | 0.631
CN1C(=O)C[C@H](C(=O)NCCOCC(=O)NCCOCCC(=O)NCCOCCC(=O)N[C@@H]2C[C@H](NC(C)(C)C)CC[C@@H]2N2CC[C@H](Nc3ncnc4ccc(C(F)(F)F)cc34)C2=O)[C@H]1c1cccnc1 [Example 106, (2S,3S)-N-(19-(((1R,2S,5R)-5-(tert-Butylamino)-2-((S)-2-oxo-3-((6-(trifluoromethyl)quinazolin-4-yl)amino)pyrrolidin-1-yl)cyclohexyl)amino)-5,12,19-trioxo-3,9, 16-trioxa-6, 13-diazanonadecyl)-1-methyl-5-oxo-2-(pyridin-3-yl)pyrrolidine-3-carboxamide] | 0.794
CC(C)N(C)[C@@H]1CC[C@H](N2CC[C@H](Nc3ncnc4ccc(C(F)(F)F)cc34)C2=O)[C@H](NC(=O)[C@H]2CC[C@H](NC(=O)CCO[C@H]3CC[C@@H](OCCNC(=O)[C@H]4CC(=O)N(C)[C@@H]4c4cccnc4)CC3)CC2)C1 [Example 114, (2S,3S)-N-(2-(((1S,4R)-4-(3-(((1R,4R)-4-(((1R,2S,5R)-5-(Isopropyl(methyl)amino)-2-((S)-2-oxo-3-((6-(trifluoromethyl)quinazolin-4-yl)amino)pyrrolidin-1-yl)cyclohexyl)carbamoyl)cyclohexyl)amino)-3-oxopropoxy)cyclohexyl)oxy)ethyl)-1-methyl-5-oxo-2-(pyridin-3-yl)pyrrolidine-3-carboxamide] | 2.51
CC(C)N(C)[C@@H]1CC[C@H](N2CC[C@H](Nc3ncnc4ccc(C(F)(F)F)cc34)C2=O)[C@H](NC(=O)[C@H]2C[C@H](NC(=O)CCO[C@H]3CC[C@@H](OCCNC(=O)[C@H]4CC(=O)N(C)[C@@H]4c4cccnc4)CC3)C2)C1 [Example 116, (2S,3S)-N-(2-(((1S,4R)-4-(3-(((1R,3R)-3-(((1R,2S,5R)-5-(Isopropyl(methyl)amino)-2-((S)-2-oxo-3-((6-(trifluoromethyl)quinazolin-4-yl)amino)pyrrolidin-1-yl)cyclohexyl)carbamoyl)cyclobutyl)amino)-3-oxopropoxy)cyclohexyl)oxy)ethyl)-1-methyl-5-oxo-2-(pyridin-3-yl)pyrrolidine-3-carboxamide] | 0.0398
CC(C)N(C)[C@@H]1CC[C@H](N2CC[C@H](Nc3ncnc4ccc(C(F)(F)F)cc34)C2=O)[C@H](NC(=O)[C@H]2C[C@H](NC(=O)CCO[C@H]3CC[C@H](OCCNC(=O)[C@H]4CC(=O)N(C)[C@@H]4c4cccnc4)CC3)C2)C1 [Example 117] | 3.98
CC(C)N(C)[C@@H]1CC[C@H](N2CC[C@H](Nc3ncnc4ccc(C(F)(F)F)cc34)C2=O)[C@H](NC(=O)CCOCCOCCNC(=O)[C@@H]2CCCN2CCOCCNC(=O)[C@H]2CC(=O)N(C)[C@@H]2c2cccnc2)C1 [Example 118, (S)-N-(2-(2-(3-(((1R,2S,5R)-5-(Isopropyl(methyl)amino)-2-((S)-2-oxo-3-((6-(trifluoromethyl)quinazolin-4-yl)amino)pyrrolidin-1-yl)cyclohexyl)amino)-3-oxopropoxy)ethoxy)ethyl)-1-(2-(2-((2S,3S)-1-methyl-5-oxo-2-(pyridin-3-yl)pyrrolidine-3-carboxamido)ethoxy)ethyl)pyrrolidine-2-carboxamide] | 15.8
CN1C(=O)C[C@H](C(=O)NCCOCCOCCC(=O)N[C@H]2CC[C@@H](C(=O)N[C@@H]3C[C@H](NC(C)(C)C)CC[C@@H]3N3CC[C@H](Nc4ncnc5ccc(C(F)(F)F)cc45)C3=O)CC2)[C@H]1c1cccnc1 [Example 120, (2S,3S)-N-(2-(2-(3-(((1S,4s)-4-(((1R,2S,5R)-5-(tert-Butylamino)-2-((S)-2-oxo-3-((6-(trifluoromethyl)quinazolin-4-yl)amino)pyrrolidin-1-yl)cyclohexyl)carbamoyl)cyclohexyl)amino)-3-oxopropoxy)ethoxy)ethyl)-1-methyl-5-oxo-2-(pyridin-3-yl)pyrrolidine-3-carboxamide] | 1.26
CC(C)N(C)[C@@H]1CC[C@H](N2CC[C@H](Nc3ncnc4ccc(C(F)(F)F)cc34)C2=O)[C@H](NC(=O)c2cccc(NCCOCCOCCOCCOCCNC(=O)[C@H]3CC(=O)N(C)[C@@H]3c3cccnc3)n2)C1 [Example 123, N-((1R,2S,5R)-5-(Isopropyl(methyl)amino)-2-((S)-2-oxo-3-((6-(trifluoromethyl)quinazolin-4-yl)amino)pyrrolidin-1-yl)cyclohexyl)-6-((1-((2S,3S)-1-methyl-5-oxo-2-(pyridin-3-yl)pyrrolidin-3-yl)-1-oxo-5,8,11,14-tetraoxa-2-azahexadecan-16-yl)amino)picolinamide] | 15.8

— patent US12521393B2, “Cytotoxicity targeting chimeras for CCR2-expressing cells” (GLAXOSMITHKLINE INTELLECTUAL PROPERTY DEVELOPMENT LIMITED, priority 2021, dated 2026)
